Measurements taken from patent US6525050B1, “(4-oxo-2-pyrimidinyl)thioalkyl compounds useful as AICARFT inhibitors” (Agouron Pharmaceuticals, Inc., priority 1998, dated 2003).

What follows are compounds tested against AICARFT (Homo sapiens, UniProt P31939) (assay: AICARFT activity, spectrophotometric enzyme assay (modified Black et al.)). Details: 50 mM Tris-HCl pH 7.5, 25° C., absorbance at 298 nm, substrates AICAR and FTHF, steady-state rate.
Assay type: biochemical
Method: Enzymatic activity was measured spectrophotometrically using a modified assay developed by Black et al. (“A Rapid Assay for 5-Amino-4-imidazolecarboxamide Ribotide Transformylase,” Anal. Biochiem. 90 (1978), 397-401). The reaction volume was 1 mL and contained 50 mM Tris-HCl pH 7.5, 25 mM KCl, 20 mM 2-mercaptoethanol, variable concentrations of test compound in 1% DMSO, […] (5-aminoimidazole-4-carboxamideribonucleotide), […] tetrathydrofolate (FTHF), and 0.015 mM enzyme. The reaction was enzyme-initiated and followed by monitoring the increase in absorbance at 298 nm at 25° C. (ξ298=19.7×10^3 cm^−1M^−1). AICARFT inhibition constants (Ki) were determined from the dependence of the steady-state catalytic rate upon compound and substrate concentration.

AICARFT, sequence (P31939 whole entry): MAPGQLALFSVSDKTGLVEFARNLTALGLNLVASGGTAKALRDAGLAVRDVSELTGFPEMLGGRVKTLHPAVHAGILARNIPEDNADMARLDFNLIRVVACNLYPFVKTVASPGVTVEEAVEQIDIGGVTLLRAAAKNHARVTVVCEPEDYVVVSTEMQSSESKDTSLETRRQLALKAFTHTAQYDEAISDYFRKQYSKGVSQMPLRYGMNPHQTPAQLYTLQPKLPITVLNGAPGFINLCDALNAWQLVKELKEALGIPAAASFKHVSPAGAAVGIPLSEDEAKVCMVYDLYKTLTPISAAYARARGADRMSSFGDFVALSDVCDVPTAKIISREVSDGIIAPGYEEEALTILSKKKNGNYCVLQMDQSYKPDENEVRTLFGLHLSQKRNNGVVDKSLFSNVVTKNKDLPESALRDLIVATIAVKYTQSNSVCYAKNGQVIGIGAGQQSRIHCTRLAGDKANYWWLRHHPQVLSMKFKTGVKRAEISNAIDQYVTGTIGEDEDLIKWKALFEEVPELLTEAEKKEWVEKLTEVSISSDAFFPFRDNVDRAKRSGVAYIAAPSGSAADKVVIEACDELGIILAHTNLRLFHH

Compared with `O=C(O)c1ccc(CCCCCSc2nc(-c3ccccc3)cc(=O)[nH]2)s1` [Compound 1, 5-(5-[(6-Phenyl-4(3H)-oxopyrimidin-2-yl)thio]pentyl)thiophene2-carboxylic acid], `O=C(O)c1ccc(CCCSc2nc(-c3ccccc3)cc(=O)[nH]2)s1` [Compound 2, 5-(3-[(6-Phenyl-4(3H)-oxopyrimidin-2-yl)thio]propyl)thiophene-2-carboxylic acid] is 2.1-fold higher in Ki: 3500 nM for the first, 7200 nM for the second. The first binds more tightly here.

Going from `O=C(O)c1ccc(CCCCCSc2nc(-c3ccc(-c4cccs4)s3)cc(=O)[nH]2)s1` [Compound 3, 5-[5-([6-(5-[2-Thienyl]thien-2-yl)-4(3H)-oxopyrimidin-2-yl]thio)pentyl]thiophene-2-carboxylic acid] to `N#Cc1c(-c2ccc(-c3cccs3)s2)nc(SCCCCCc2ccc(C(=O)O)s2)[nH]c1=O` [Compound 8, [5-([5-Cyano-6-(5-[2-thienyl]thien-2-yl)-4(3H)-oxopyrimidin-2-yl]thio)pentyl]thiopbene-2-carboxylic acid], the Ki falls from 280 nM to 40 nM (7-fold).

Compared with `COC(=O)c1ccc(CCCCCSc2nc(-c3ccc(-c4ccccc4)cc3)cc(=O)[nH]2)s1` [Compound 4, Methyl 5-[5-([6-(4-biphenylyl)-4(3H)-oxopyrimidin-2-yl]thio)pentyl]-thiophene-2-carboxylate], `O=C(O)c1ccc(CCCCCSc2nc(-c3ccc(-c4ccccc4)cc3)cc(=O)[nH]2)s1` [Compound 5, 5-[5-([6-(4-Biphenylyl)-4(3H)-oxopyrimidin-2-yl]thio)pentyl]thiophene-2-carboxylic acid] is 200-fold lower in Ki: 54700 nM for the first, 270 nM for the second.

Compared with `O=C(O)c1ccc(CCCCCSc2nc(-c3ccc(Oc4ccccc4)cc3)cc(=O)[nH]2)s1` [Compound 6, 5-[5-([6-(4-Phenoxypheuyl)-4(3H)-oxopyrimidin-2-yl]thio)pentyl]thiophene-2-carboxylic acid], `O=C(O)c1ccc(CCCCCSc2nc(-c3ccc(N4CCOCC4)cc3)cc(=O)[nH]2)s1` [Compound 7, 5-[5-([6-(4-Morpholinylphenyl)-4(3H)-oxopyrimidin-2-yl]thio)pentyl]-thiophene-2-carboxylic acid] is 2-fold lower in Ki: 430 nM for the first, 220 nM for the second.

Compared with `O=C(O)CCC(NC(=O)c1ccc(CCCCCSc2nc(-c3ccccc3)cc(=O)[nH]2)s1)C(=O)O` (stereo not drawn) [Compound 9, N-(5-[5-([6-Phenyl-4(3H)-oxopyrimidin-2-yl]thio)pentyl]theno-2-yl)glutamic acid], `O=C(O)CCC(NC(=O)c1ccc(CCCCSc2nc(-c3ccccc3)cc(=O)[nH]2)s1)C(=O)O` (stereo not drawn) [Compound 11, N-(5-[5-([6-Phenyl-4(3H)-oxopyrimidin-2-yl]thio)butyl]thio2-yl)glutamic acid] is 15-fold higher in Ki: 460 nM for the first, 6800 nM for the second.

Going from `N#Cc1c(-c2ccc(-c3cccs3)s2)nc(SCCCCCc2ccc(C(=O)NC(CCC(=O)O)C(=O)O)s2)[nH]c1=O` (stereo not drawn) [Compound 10, N-(5-[5-([5-Cyano-6-(5-[2-thienyl]thien-2-yl)-4(3H)-oxopyrimidin-2-yl]thio)pentyl]theno-2-yl)glutamic acid] to `O=C(O)CCC(NC(=O)c1ccc(CCCSc2nc(-c3ccccc3)cc(=O)[nH]2)s1)C(=O)O` (stereo not drawn) [Compound 13, N-(5-[3-([6Phenyl-4(3H)-oxopyrimidin-2-yl]thio)propyl]theno-2-yl)glutamic acid], the Ki rises from 4 nM to 5300 nM (1300-fold). The first binds more tightly here.

First: O=C(O)CCC(NC(=O)c1ccc(CCSc2nc(-c3ccccc3)cc(=O)[nH]2)s1)C(=O)O (stereo not drawn) [Compound 12, N-(5-[2-([6-Phenyl-4(3H)-oxopyrimidin-2-yl]thio)ethyl]theno-2-yl)glutamic acid]
Second: O=C(O)c1ccc(CCCCCSc2nc(-c3cccc(-c4nn[nH]n4)c3)cc(=O)[nH]2)s1 [Compound 26, 5-[5-([6-(3-[1(H)-Tetrazol-5-yl]phenyl)-4(3H)-oxopyrimidin-2-yl]thio)pentyl]thiophene-2-carboxylic acid]
The Ki of the first is 24-fold higher: 8900 nM for the first, 370 nM for the second.

Compared with `N#Cc1c(-c2ccc(-c3cccs3)s2)nc(SCc2ccc(S(=O)(=O)Nc3ccc(F)cc3)cc2)[nH]c1=O` [Compound 14, N-(4-Fluorophenyl) 4-[([5-cyano-6-(5-[2-thienyl]thien-2-yl)-4(3H)-oxopyrimidin-2-yl]thio)methyl]benzenesulfonamide], `N#Cc1c(-c2ccc(-c3cccs3)s2)nc(SCc2ccc(NS(=O)(=O)c3ccc(F)cc3)cc2)[nH]c1=O` [Compound 18, N-(4-[([5-Cyano-6-(5-[2-thienyl]thien-2-yl)-4(3H)-oxopyrimidin-2-yl]thio)methyl]phenyl) 4-fluorobenzenesulfonamide] is 1.6-fold lower in Ki: 590 nM for the first, 380 nM for the second.

`CN(c1ccc(F)cc1)S(=O)(=O)c1ccc(CSc2nc(-c3ccc(-c4cccs4)s3)c(C#N)c(=O)[nH]2)cc1` [Compound 15, N-(4-Fluorophenyl)-N-methyl 4-[([5cyano-6-(5-[2-thienyl]thien-2-yl)-4(3H)-oxopyrimidin-2-yl]thio)methyl]benzenesulfonamide] and `CN(c1ccc(CSc2nc(-c3ccc(-c4cccs4)s3)c(C#N)c(=O)[nH]2)cc1)S(=O)(=O)c1ccc(F)cc1` [Compound 20, N-(4-[([5Cyano-6(5-[2-thienyl]thien-2-yl)-4(3 H)-oxopyrimidin-2-yl]thio)methyl]phenyl)-N-methyl 4-fluorobenzenesulfonamide] are within 1.5-fold of each other in Ki: 2100 nM for the first, 1800 nM for the second.

Compared with `Cc1ccc2cc(NS(=O)(=O)c3ccc(CSc4nc(-c5ccc(-c6cccs6)s5)c(C#N)c(=O)[nH]4)cc3)ccc2n1` [Compound 16, N-(2-Methylquinolin-6-yl) 4-[([5-cyan-6-(5-[2-thienyl]thien-2yl)-4(3H)-oxopyrimidin-2-yl]thio)methyl]benzenesulfonamide], `N#Cc1c(-c2ccc(-c3cccs3)s2)nc(SCc2cccc(NS(=O)(=O)c3ccc(F)cc3)c2)[nH]c1=O` [Compound 25, N(3-[([5-Cyano-6-(5-[2-thienyl]thien-2-yl)-4(3H)-oxopyrimidin-2-yl]thio)methyl]phenyl) 4-fluorobenzenesulfonamide] is 3.3-fold higher in Ki: 430 nM for the first, 1400 nM for the second. The first binds more tightly here.

`Cc1cc(CSc2nc(-c3ccc(-c4cccs4)s3)c(C#N)c(=O)[nH]2)ccc1S(=O)(=O)Nc1ccc(F)cc1` [Compound 17, N-(4-Fluorophenyl) 4-[([5-cyano-6-(5-[2-thienyl]thien-2-yl)-4(3H)-oxopyrimidin-2-yl]thio)methyl]-2-methylbenzenesulfonamide] and `Cc1cc(CSc2nc(-c3ccc(-c4cccs4)s3)c(C#N)c(=O)[nH]2)ccc1NS(=O)(=O)c1ccc(F)cc1` [Compound 22, N-(4-[([5-Cyano-6-(5-[2-thienyl]thien-2-yl)4(3H)-oxopyrimidin-2-yl]thio)methyl]-2-methylphenyl) 4-fluorobenzenesulfonamide] are the same in Ki: 1000 nM for the first, 1000 nM for the second.

Compared with `N#Cc1c(-c2ccc(-c3cccs3)s2)nc(SCc2ccc(S(=O)(=O)Nc3ccc(F)cc3)cc2Cl)[nH]c1=O` [Compound 19, N-(4-Fluorophenyl) 4-[([5-cyano-6-(5-[2-thienyl]thien-2-yl)-4(3H)-oxopyrimidin-2-yl]thio)methyl]-3-chlorobenzenesulfonamide], `N#Cc1c(-c2ccc(-c3cccs3)s2)nc(SCc2ccc(NS(=O)(=O)c3ccc(F)cc3)cc2Cl)[nH]c1=O` [Compound 21, N-(3-Chloro-4-[([5-cyano-6-(5-[2-thienyl]thien-2-yl)-4(3H)-oxopyrimidin-2-yl]thio)methyl]phenyl) 4-fluorobenzenesulfonamide] is 14-fold lower in Ki: 400 nM for the first, 29 nM for the second.

Compared with `COc1cc(NS(=O)(=O)c2ccc(F)cc2)ccc1CSc1nc(-c2ccc(-c3cccs3)s2)c(C#N)c(=O)[nH]1` [Compound 23, N-(4-[([5-Cyano-6-(5-[2-thienyl]thien-2-yl)-4(3H)-oxopyrimidin-2-yl]thio)methyl]-3-methoxyphenyl) 4-fluorobenzenesulfonamide], `COc1cc(CSc2nc(-c3ccc(-c4cccs4)s3)c(C#N)c(=O)[nH]2)ccc1NS(=O)(=O)c1ccc(F)cc1` [Compound 24] is 1.7-fold higher in Ki: 770 nM for the first, 1300 nM for the second. The first binds more tightly here.

With `N#Cc1c(-c2ccc(-c3cccs3)s2)nc(SCc2ccc(S(=O)(=O)NCCc3c[nH]c4ccccc34)cc2)[nH]c1=O` [Compound 27, N-(2-[1(H)-indol-3-yl]-ethyl) 4-[([5-cyano-6-(5-[2-thienyl]thien-2-yl)-4(3H)-oxopyrimidin-2-yl]thio)methyl]benzenesulfonamide] the Ki was 83 nM.
